Assay results as given in patent US20140348966A1, “GARCINIA BUCHANANII BAKER COMPOUNDS, COMPOSITIONS AND RELATED METHODS” (priority 2011, published 2014).
Read-outs that look alike come from different tables or passages of the source.

How the values were obtained:
[1] = hydrogen peroxide scavenging assay; assay type: biochemical; details: isolated and reference compounds; read-out: H2O2 assay EC50
Protocol: Hydrogen peroxide scavenging assay was performed in accordance with the method of Ichikawa, M. and colleagues (2002). Sample solutions at appropriate concentration were prepared using phosphate buffer (100 mM, pH 6.0). Sample solution ([…]), phosphate buffer (30 mL, 100 mM, pH 6.0), and hydrogen peroxide solution (10 mL, 500 mM) were mixed in 96-well clear microplate (VWR, Ismaning, Germany). Then peroxidase (40 mL, 150 U/mL) and ABTS (40 mL, 0.1%) were added. The microplate was incubated at 37° C. for 15 min. The absorbance (A) of each well was measured at 414 nm with FLUOstar OPTIMA (BMG LABTECH, Offenburg, Germany). […] After freeze-drying three times 1 MPLC fractions M1-M8 were analyzed in natural concentrations.
E=[(A−Ablank)control−(A−Ablank)test]/(A−Ablank)control·100

[2] = oxygen radical absorbance capacity (ORAC) assay; assay type: biochemical; details: isolated and reference compounds
Protocol: ORAC assay was carried out according to the method of Ou, G. and colleagues (1993) with some modifications. Trolox and FL were used as a standard and a fluorescent probe respectively. Free radicals were produced by AAPH to oxidize FL. Different dilutions of Trolox ([…]) and appropriate dilutions of tested sample were prepared with phosphate buffer (10 mM, pH 7.4). Trolox dilution ([…]) or sample solution were pipetted into a well of 96-well black microplate (VWR) and then FL (150 mL, 10 nM) was added. The reaction mixture was incubated at 37° C. for 30 min Afterward s, fluorescence was measured every 90 sec at the excitation of 485 nm and the emission of 520 nm using FLUOstar OPTIMA. After 3 cycles, AAPH ([…], 240 mM) was added quickly, and then the measurement was resumed and continued up to 90 min (60 cycles in total). The background signal was determined using the first 3 cycles. The ORAC values were calculated according to the method of Ou, G. and colleagues (1993) and expressed as Trolox equivalent (mmol TE/mmol). After freeze-drying in triplicate, MPLC fractions M1-M8 were analyzed in natural concentrations.

[3] = cited from earlier work
guinea pig distal colon = test: fecal pellet propulsion motility assay in isolated distal colon (GIMM); details: MPLC fractions and their main compounds, serosal application in Krebs
Protocol: Gastrointestinal Motility Assays: Segments (˜10 cm long) of distal colon were pinned on either end in a Sylgard-lined 50 mL organ bath, continuously perfused with oxygenated Krebs solution (rate: 10 mL min^−1) and maintained at temperatures between 36 and 37° C. Tissues were initially allowed to equilibrate for 30 mins in re-circulating Krebs solution. Colonic motility was studied using the Gastronintestinal Motility Monitoring system (GIMM; Med-Associates Inc., Saint Albans, Vt., USA), which included a digital video camera (Catamount Research and Development Inc, St Albans, Vt., USA) to film fecal pellet propulsion. Trials were separated by 5-min recovery periods between successive pellet runs. The GIMM system software calculated velocities by tracking pellets as they traversed colon segments. After initial equilibration, five pellet propulsion trials in vehicle solution were obtained to determine the basal velocity for each tissue preparation. To reduce variations between runs and experiments, the values obtained were used to generate a normalized basal velocity by dividing the values of the 4th-5th runs by the value of the 1st-2nd runs. Garcinia buchananii stem bark extract and test compounds dissolved in 100 mL of Krebs solution were superfused either into the organ bath or into the lumen of the colon using polyethylene tubing [PE 205; outside diameter 9.5 mm (BD-Worldwide, Sparks, Md., USA)]. The effects of extract and test compounds were evaluated by obtaining velocities of four trials taken at 5-min intervals (5-20 min) Normalized velocity data for these treatments were obtained by dividing the test velocities acquired by the average velocity of the five pellet propulsion runs performed in vehicle solution (runs 1-5, above). Normalized data became ratios without units, and were presented as a percent velocity of basal activity for each tissue. Velocities of pellet propulsion were also studied during washout of tissue with Krebs solution (after extract or test compound application) for 20 min
A segment (˜10-12 cm long) of distal colon was pinned on either end in a Sylgard-lined 50 mL organ bath being continuously perfused with oxygenated Krebs solution (rate: 10 mL min^−1) and maintained at temperatures between 36-37° C. Nail-polish-coated guinea-pig pellets similar in shape and size to the “native” colonic fecal pellets were used to determine propulsive velocities using the Gastrointestinal Motility Monitoring system (Med-Associates Inc., Saint Albans, Vt., USA) for filming pellet propulsion as described by Hoffman and others (2010). Velocity was calculated based on the time required for pellets to traverse 5-6 cm of the central colon segment ending 1 cm from the aboral end. Data collection started after 30 minutes of equilibration. A five-minute interval was used to allow equilibration of motor activity between successive pellet runs. Baseline velocities were measured for 20 minutes.
In intraluminal studies, the aqueous extract was prepared by suspending 2 g of G. buchananii bark powder in 100 mL Krebs, whereas 1 g G. buchananii bark powder prepared in the same manner was used for bath (serosal) applications. The extract-Krebs mixture was continuously stirred for 30 minutes and filtered using analytical filter paper (Schleicher and Schuell Blue Ribbon filter paper 589/3; 0.2 μm retention). Garcinia buchananii extract and test compounds were delivered to isolated colons in Krebs solution, and evaluated for effects on pellet propulsion during 20-25 minute time intervals. Intraluminal drug deliveries (350 μL min^−1 Krebs solution) were performed using polyethylene tubing (PE 205; outside diameter 9.5 mm) inserted ˜1.5 cm into the oral end of the segments. In bath deliveries, G. buchananii extract and test compounds were superfused directly into the organ bath. Studies involving PTLC fractions were performed using the organ bath delivery method only.

[4] = system: Wistar rats with high-lactose diet-induced diarrhea; test: high-lactose diet (HLD) induced diarrhea in rats; assay type: in vivo
Protocol: A high-lactose (35%) diet induced diarrhea in Wistar rats, which were then treated with either G. buchananii bark extract (0.1, 0.5, 1.0 and 5.0 g bark powder) or its anti-motility fractions isolated using preparative thin layer chromatography; termed PTLC1 (15 mg) and PTLC5 (3.8 mg) or loperamide (8.4 mg), each dissolved in 1 liter of tap water. Numerous parameters were measured in each condition including consistency, fluid and mucus content of feces, body weight, water and food consumption, urine production and bloating.
The study was conducted in accordance with the regulations of the University of Idaho Institutional Animal Care and Use Committee (IACUC). Sixty two, 10 week old Wistar rats were obtained from Harlan Animal Research Laboratory (Hayward Calif., USA). Rats were individually caged (23-24° C.; 12:12 h light-dark cycle) and quarantined for one week. Rats were fed a standard chow diet ad libitum (Animal Specialties, Hubbard, Oreg., USA) and had free access to water for four days prior to the inducement of diarrhea. A high-lactose diet (HLD) containing 35% lactose in place of starch (3.004 Kcal; Purina Mills; Richmond, Ind., USA) was fed to 52 rats. Diarrhea was induced within 24-48 hours after consuming the diet. Rats were monitored for changes in consistency of pellets and stool mass, fecal fluid and urine production (mass; g and volume; ml). Rats were considered diarrheic if they produced watery stools, soft, yellowish stools compared to normal, pliable, soft, well-formed pellets as previously described by other researchers.
Four days after introducing rats to a HLD, diarrheic rats were treated using varying doses of G. buchananii extract, its anti-motility fractions isolated using preparative thin layer chromatoghraphy (PTLC1 & PTLC5) and loperamide for standard comparison. Rats were maintained on a HLD during the entire treatment period.
Garcinia buchananii bark powder was prepared from stem barks collected from trees in their natural habitat in Karagwe, Tanzania, as described previously by Balemba, OB and colleagues, 2010. A sample can be found at the University of Idaho Stillinger herbarium (voucher #159918). 0.1 g, 0.5 g, 1.0 g and 5.0 g of G. buchananii bark powder were each suspended in 1 L of tap water, stirred for 30 minutes and filtered. The filtrate was then immediately used to treat rats against lactose-induced diarrhea.
Twenty nine rats on a HLD were randomly assigned and treated with varying doses of G. buchananii extract (0.1 g, 0.5 g, 1 g, and 5 g extract; n=6-10 rats per group). Eight rats were treated with PTLC1 or PTLC5 (each n=4) at a dose of 15 mg and 3.8 mg in 100 mL tap water, respectively. For control treatments, seven rats were treated with loperamide (8.4 mg/L tap water), eight rats were left untreated (HLD control) and ten rats received control standard chow diets (SD). Rats were treated for a total of four days, receiving freshly made drugs every two days.
We studied the impact of a HLD and all the treatments on the consistency, form and appearance of feces. Body weight, food and water intake were measured every two days for the entire period. Diarrheic rats treated with G. buchananii (0.1 g/l, 1.0 g/l) and loperamide were used to study fecal fluid content, stool mass and urine production compared with untreated rats on a HLD and SD control diets (n=3-5). To achieve this, pellets/stools and urine were allowed to drop on non-leaking, polyester plastic mats spread in metal trays placed beneath wired cages housing rats. Pellets/stools and urine were collected every three hours, for 24 hours, for a 12-day period. Disposable polyethylene transfer pipettes (5.5 mL) were used to collect urine. Pellets/stools were collected by using custom-made pieces of Inkjet transparencies. The samples were stored in disposable, polypropylene containers (100 mL) tightly capped to avoid loss of moisture due to vaporization. […]

[5] = Values from Wolfe and Liu (stereochemistry of naringenin and taxifolin not stated)
[6] = HLD rats, PTLC1 15 mg, PTLC5 3.8 mg in 100 mL tap water, loperamide 8.4 mg/L, after 24 hrs to the 4th day
[7] = HLD rats, loperamide 8.4 mg/L, PTLC1 15 mg/100 mL, PTLC5 3.8 mg/100 mL

Row | Structure (SMILES) | EC50 [1] [µM] | ORAC assay [2] [μmol TE/μmol] | other results
1 | O=C1CC(c2ccc(O)cc2)Oc2cc(O)cc(O)c21 (racemic) [(±)-naringenin] | 8.6 | 3.96 | 
2 | Oc1cc(O)c2c(c1)O[C@H](c1ccc(O)c(O)c1)[C@H](O)C2 [(−)-epicatechin] | 4.1 | 9.65 | ORAC, Literature [3, 5]: 9.14^6 μmol TE/μmol
3 | O=C1c2c(cc(O)c([C@@H]3O[C@H](CO)[C@@H](O)[C@H](O)[C@H]3O)c2O)O[C@H](c2ccc(O)c(O)c2)[C@H]1O [Compound 1, (2R,3R)-Taxifolin-6-C-β-D-glucopyranoside] | 11 | 9.57 | 
4 | O=C1c2c(cc(O)c([C@@H]3OC(CO)[C@@H](O)[C@H](O)C3O)c2O)O[C@H](c2ccc(O)cc2)[C@H]1O (stereo partly drawn) [Compound 2, (2R,3R)-Aromadendrin-6-C-β-D-glucopyranoside] | 10.9 | 4.23 | 
5 | O=C1c2c(O)cc(O)c([C@@H]3C(=O)c4c(O)cc(O)cc4O[C@H]3c3ccc(O)cc3)c2O[C@H](c2ccc(O)c(O)c2)[C@H]1O [Compound 4, (2R,3S,2″R,3″R)-GB-2] | 2.2 | 12.10 | effect on pellet propulsion velocity (guinea pig distal colon): inhibits guinea pig colon propulsive motility
6 | CN(C)C(=O)C(CCN1CCC(O)(c2ccc(Cl)cc2)CC1)(c1ccccc1)c1ccccc1 [loperamide] |  |  | intestinal bloating / cecum distension ([4]; HLD rats, all doses): reduced cecum distension; cecum maximum diameter ([4]; HLD rats, loperamide 8.4 mg/L): 2.0+/−0.2 cm; fecal fluid content ([4]; HLD rats, loperamide 8.4 mg/L): 43.8±6.5%; Form of stool: Hardened normal pellets [4, 6]: ++++++; Form of stool: Loose stool with structural form of pellet [4, 6]: −; Form of stool: Loose stools + mucous (non-structural stool) [4, 6]: −; Form of stool: Soft formed pellets [4, 6]: −; Form of stool: Watery diarrhea + mucous (incontinence or profuse) [4, 6]: −; body weight change [4, 7]: -1.33 ± 0.64 g; food consumption [4, 7]: 28.50 ± 3.58 g; water (fluid) consumption [4, 7]: 43.96 ± 7.66 mL; reversal of weight loss versus untreated HLD rats ([4]; loperamide 8.4 mg/L, not significant): 1.78 g

Further lines, with some results ahead:

Row | EC50 [1] [µM] | Structure (SMILES) | ORAC assay [2] [μmol TE/μmol] | other results
7 | 14.4 | O=C1C[C@@H](c2ccc(O)c(O)c2)Oc2c1c(O)cc(O)c2[C@@H]1C(=O)c2c(O)cc(O)cc2O[C@H]1c1ccc(O)c(O)c1 [Compound 5, (2R,3S,2″S)-2-(3,4-dihydroxyphenyl)-2,2′,3,3′-tetrahydro-5,5,7,7-tetrahydroxy-2′-(3,4-dihydroxyphenyl)-[3,8′-Bi-4H-1-benzopyran]-4,4′-dione] | 10.50 | effect on pellet propulsion velocity (guinea pig distal colon): inhibits guinea pig colon propulsive motility
8 | 11.3 | O=C1c2c(O)cc(O)cc2O[C@H](c2ccc(O)c(O)c2)[C@H]1O [Compound 6, (+)-(2R,3R)-Taxifolin] | 7.63 | 
9 | 18.5 | O=C1O[C@H]([C@@H](O)CO)C(O)=C1O [ascorbic acid] | 0.34 | 
10 | 6.1 | O=c1c(O)c(-c2ccc(O)c(O)c2)oc2cc(O)cc(O)c12 [quercetin] | 5.61 | ORAC, Literature ([3]; Values from Ou et al.): 7.28 μmol TE/μmol; ORAC, Literature [3, 5]: 8.04 μmol TE/μmol
